Measurements as given in US20230295088A1, “INSULIN SENSITIZERS FOR THE TREATMENT OF DIABETES MELLITUS” (University of Iowa Research Foundation, priority 2020, published 2023).
“Also recorded” adds a separate entry of the source.

Legend:
PPARg = target: T1, PPARg (Homo sapiens, UniProt P37231); assay: Luminescent PPARg reporter assay in vitro; format: cell-based
T1 sequence (P37231 1-505): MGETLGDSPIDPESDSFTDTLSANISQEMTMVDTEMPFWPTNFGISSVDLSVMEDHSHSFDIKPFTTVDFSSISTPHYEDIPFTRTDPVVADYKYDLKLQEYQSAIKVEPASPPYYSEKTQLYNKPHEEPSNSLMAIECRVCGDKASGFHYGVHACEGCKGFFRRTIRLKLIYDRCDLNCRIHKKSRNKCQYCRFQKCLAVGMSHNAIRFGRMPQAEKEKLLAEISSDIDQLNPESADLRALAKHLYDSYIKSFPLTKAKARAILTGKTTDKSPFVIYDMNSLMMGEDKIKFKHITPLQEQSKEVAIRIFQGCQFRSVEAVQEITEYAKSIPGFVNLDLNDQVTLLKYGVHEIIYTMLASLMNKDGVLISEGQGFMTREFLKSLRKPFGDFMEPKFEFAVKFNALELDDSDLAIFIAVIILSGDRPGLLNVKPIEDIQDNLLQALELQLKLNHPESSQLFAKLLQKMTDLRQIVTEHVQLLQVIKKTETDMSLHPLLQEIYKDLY
Text: C3 is not liver toxic and acts through a different mechanism than TZDs. […] Deleterious side effect or TZDs are due to their agonism of PPARg.

[1] = tested on: GLUT4 translocation in HBG4 mice; assay: In vivo GLUT4 translocation in HBG4 mice (IVIS luminescence); parameters: species or system mouse; settings: DIO HBG4 mice treated for 2 weeks, insulin 10 minutes before substrate
Method: C3 potentiates insulin action in primary adipocytes and in live mice. Using HBG4 mice, insulin stimulated GLUT4 translocation of endogenous GLUT4 was measured in primary skeletal muscle fibers and primary adipocytes. Enhancement of insulin-stimulated translocation of endogenous GLUT4 was also shown in primary adipocytes in the presence of C3. In parallel dishes, increased insulin-stimulated glucose uptake in HBG4 primary adipocyte treated with C3 was found. […] To determine if the HBG4 mouse can be used to measure GLUT4 translocation in vivo, HBG4 mice were pretreated with daily IP injections of vehicle or 50 mg/Kg C3 for 3 days. On the day of the experiment, mice were injected with vehicle or insulin IP followed by a subcutaneous injection of LgBiT and substrate around the leg muscles. Mice were then anesthetized and placed into an IVIS system to measure luminescence. […] Baseline signal was detected in vehicle and C3 treated HBG4 mice. […]
DIO HBG4 mice were treated with vehicle or C59 for 2 weeks and injected i.v. with an adenovirus coding for a secreted form of LgBiT (allowing LgBiT production and secretion predominantly by the liver into the circulation) 2 days prior to the experiment. Animal were then injected with saline or insulin 10 minutes before i.v. injection of substrate and luminescence imaging using an IVIS system.

Unc119 = target: T2, Unc119 (Mus musculus, UniProt Q9Z2R6); assay: Proteome Integral Solubility Alteration (PISA) assay, Unc119; format: binding; parameters: dose or concentration left out as unconfirmed
T2 construct: endogenous in cells
Text: Identification of the molecular target of C59. Since the discovery of C59 as an insulin sensitizer was achieved using a phenotypic screen, the molecular target of the compound was unknown. To identify the target, a Proteome Integral Solubility Alteration (PISA) assay was used. […] To measure the shift in thermal stability, constructs coding for Unc119-HiBiT and Unc119b-HiBit were generated, thus allowing the quantitative detection of those proteins by adding LgBiT and furimazin to the lysates and measuring luminescence. Crude extract from cells transfected with Unc119-HiBiT or Unc119b-HiBiT, were incubated with DMSO or C59 for 10 minutes, aliquoted, heated for 3 minutes at the indicated temperature and allowed to cool down to room temperature before adding LgBiT and furimazin and reading luminescence on a plate reader.

lean mice = assay: Glucose tolerance test in lean mice; format: in vivo, mouse; settings: single injection before GTT
Method: C3 improves glucose tolerance in lean and obese insulin resistant mice. To test whether C3 improves glucose handling, lean mice were injected with vehicle or C3 30 minutes before performing a glucose tolerance test. […] To further determine if C3 can reverse glucose intolerance, WT mice were made insulin-resistant by feeding them a high fat diet (HFD) for a period of 10 weeks. Diet induced obese (DIO) mice were then injected with vehicle or C3 for 2 weeks while remaining on HFD. […] Together those results establish in vivo efficacy of C3 for the treatment of insulin resistance.

Unc119 KO HBG4 cells [2] = assay: 3H-Deoxy-D-Glucose uptake in Unc119 KO HBG4 cells; format: cell-based, mouse
Method: (§1) Unc119 and Unc119b are important for the insulin sensitizing effect of C59. After identifying Unc119 proteins as molecular targets for C59, it was tested whether those proteins were responsible for the insulin sensitizing activity of C59. To this end Unc119 and Unc119b KO HBG4 cells were generated using CRISPR/Cas9 technology. For each of those cell lines two gRNA surrounding the start codon were used, thus resulting in a deletion of a fragment of the Unc119 genes that includes the ATG. Deletion of Unc119 and Unc119b in clonal cell lines were screened and verified by PCR (FIG. 4E). The effect of C59 on insulin-stimulated. […] To further test this finding, 3H-Deoxy-D-Glucose uptake in WT, Unc119 KO and Unc119b KO HBG4 cells treated with vehicle, insulin, C59 alone and C59 with insulin was measured.

Unc119 KO HBG4 cells [3] = assay: Insulin-stimulated GLUT4 translocation in Unc119 KO HBG4 cells; format: cell-based, mouse
Method: as §1

[4] = tested on: GLUT4 expressing tissues of DIO mice; assay: PET/CT measurement of 18F-FDG uptake in DIO mice; format: in vivo, mouse; settings: HFD supplemented with C59 for two weeks
Method: C59 improves glucose uptake in storage tissues of DIO mice. Since insulin resistance results in a failure to transport glucose from the circulation to tissues that can use it as a source of energy or store it, it was tested whether treating insulin resistant DIO mice with C59 results in an increase in glucose uptake in GLUT4 expressing tissues. For this, insulin resistant DIO mice (fed a HFD for 10 weeks) were fed HFD or HFD supplemented with C59 for two weeks before injection of ^18F-FDG and uptake of the radioactive glucose tracer was measured by PET/CT.

SMILES: O=C(Nc1ccc(Cl)c(Cl)c1)C12CC3CC(CC(C3)C1)C2 [Compound C59]
- PPARg agonist activity (PPARg): neither C3 nor C59 have PPARγ agonist activity
- insulin-stimulated GLUT4 translocation in vivo [1]: very significantly improved
- thermostability of Unc119 (PISA) (Unc119; live cells, vs DMSO and C29): increased the thermostability; also recorded: concentration dependent increased thermostability
- thermostability of Unc119 (PISA) (Unc119; lysates (crude extract)): increased the thermostability
- glucose clearance in glucose tolerance test (lean mice): improvement
- 3H-Deoxy-D-Glucose uptake, compound alone (Unc119 KO HBG4 cells [2]; no insulin): did not stimulate
- insulin stimulated 3H-Deoxy-D-Glucose uptake (Unc119 KO HBG4 cells [2]; with insulin): failed to do so
- insulin-stimulated GLUT4 translocation (Unc119 KO HBG4 cells [3]): failed to enhance
- 18F-FDG uptake in BAT [4]: significantly increased
- 18F-FDG uptake in WAT [4]: significantly increased
- 18F-FDG uptake in heart tissues [4]: significantly increased
- 18F-FDG uptake in skeletal muscles [4]: significantly increased
